According to PubChem BioAssay (NCI):
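Compound exposure: 48 hours, 5 concentrations, 96-well plates. GI50 = concentration required for 50% inhibition of growth. TGI marks complete inhibition of growth.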

Assays:
Assay in all cases: NCI-60 cell line screen, 48 h
BT-549 breast = tested on: BT-549 breast
HOP-62 NSCLC = tested on: HOP-62 NSCLC
MOLT-4 leukemia = tested on: MOLT-4 leukemia
IGROV1 ovarian = tested on: IGROV1 ovarian
UO-31 renal = tested on: UO-31 renal
CCRF-CEM leukemia = tested on: CCRF-CEM leukemia
DU-145 prostate = tested on: DU-145 prostate
SNB-75 CNS = tested on: SNB-75 CNS
U251 CNS = tested on: U251 CNS
SK-MEL-2 melanoma = tested on: SK-MEL-2 melanoma
SF-295 CNS = tested on: SF-295 CNS
KM12 colon = tested on: KM12 colon
HCT-15 colon = tested on: HCT-15 colon
MDA-MB-435 = tested on: MDA-MB-435
LOX IMVI melanoma = tested on: LOX IMVI melanoma
SNB-19 CNS = tested on: SNB-19 CNS
OVCAR-4 ovarian = tested on: OVCAR-4 ovarian
RXF 393 renal = tested on: RXF 393 renal
HT29 colon = tested on: HT29 colon
ACHN renal = tested on: ACHN renal
K-562 leukemia = tested on: K-562 leukemia
SW-620 colon = tested on: SW-620 colon
A498 renal = tested on: A498 renal
NCI-H23 lung = tested on: NCI-H23 lung
M14 melanoma = tested on: M14 melanoma
OVCAR-5 ovarian = tested on: OVCAR-5 ovarian
NCI/ADR-RES ovarian = tested on: NCI/ADR-RES ovarian
MDA-MB-231 breast = tested on: MDA-MB-231 breast
UACC-257 melanoma = tested on: UACC-257 melanoma
NCI-H226 lung = tested on: NCI-H226 lung
HS 578T breast = tested on: HS 578T breast
786-0 renal = tested on: 786-0 renal
HOP-92 NSCLC = tested on: HOP-92 NSCLC
SK-OV-3 ovarian = tested on: SK-OV-3 ovarian
MDA-MB-468 breast = tested on: MDA-MB-468 breast
A549 NSCLC = tested on: A549 NSCLC
HCT-116 colon = tested on: HCT-116 colon
NCI-H460 lung = tested on: NCI-H460 lung
SK-MEL-5 melanoma = tested on: SK-MEL-5 melanoma
UACC-62 melanoma = tested on: UACC-62 melanoma
COLO 205 colon = tested on: COLO 205 colon
PC-3 prostate = tested on: PC-3 prostate
SN12C renal = tested on: SN12C renal
TK-10 renal = tested on: TK-10 renal
T-47D breast = tested on: T-47D breast
SK-MEL-28 melanoma = tested on: SK-MEL-28 melanoma
HCC-2998 colon = tested on: HCC-2998 colon
SF-268 CNS = tested on: SF-268 CNS
SF-539 CNS = tested on: SF-539 CNS
MCF7 breast = tested on: MCF7 breast
OVCAR-3 ovarian = tested on: OVCAR-3 ovarian
MALME-3M melanoma = tested on: MALME-3M melanoma
RPMI-8226 leukemia = tested on: RPMI-8226 leukemia
CAKI-1 renal = tested on: CAKI-1 renal
HL-60(TB) leukemia = tested on: HL-60(TB) leukemia
SR leukemia = tested on: SR leukemia
NCI-H522 lung = tested on: NCI-H522 lung
OVCAR-8 ovarian = tested on: OVCAR-8 ovarian
EKVX NSCLC = tested on: EKVX NSCLC

O=C(CSc1nnc(-c2ccc3nc(-c4ccc(Cl)cc4)[nH]c3c2)o1)Nc1ccc(Br)cc1
GI50 (BT-549 breast): 2.66 µM | TGI (BT-549 breast): 6.12 µM | GI50 (HOP-62 NSCLC): 5.96 µM | TGI (HOP-62 NSCLC): 20.2 µM | GI50 (MOLT-4 leukemia): 3.19 µM | TGI (MOLT-4 leukemia): 15.4 µM | GI50 (IGROV1 ovarian): 10.6 µM | TGI (IGROV1 ovarian): 23 µM | GI50 (UO-31 renal): 11.8 µM | TGI (UO-31 renal): 24 µM | GI50 (CCRF-CEM leukemia): 3.33 µM | TGI (CCRF-CEM leukemia): 20.4 µM | GI50 (DU-145 prostate): 5.83 µM | TGI (DU-145 prostate): 19.1 µM | GI50 (SNB-75 CNS): 2.36 µM | TGI (SNB-75 CNS): 14.1 µM | GI50 (U251 CNS): 2.69 µM | TGI (U251 CNS): 6.66 µM | GI50 (SK-MEL-2 melanoma): 4.74 µM | TGI (SK-MEL-2 melanoma): 18.4 µM | GI50 (SF-295 CNS): 6.17 µM | TGI (SF-295 CNS): 19.2 µM | GI50 (KM12 colon): 10.4 µM | TGI (KM12 colon): 41.5 µM | GI50 (HCT-15 colon): 4.18 µM | TGI (HCT-15 colon): 16.3 µM | GI50 (MDA-MB-435): 2.9 µM | TGI (MDA-MB-435): 9.3 µM | GI50 (LOX IMVI melanoma): 1.63 µM | TGI (LOX IMVI melanoma): 2.98 µM | GI50 (SNB-19 CNS): 4.2 µM | TGI (SNB-19 CNS): 14.6 µM | GI50 (OVCAR-4 ovarian): 6.65 µM | TGI (OVCAR-4 ovarian): 26.7 µM | GI50 (RXF 393 renal): 2.6 µM | TGI (RXF 393 renal): 8.42 µM | GI50 (HT29 colon): 5.66 µM | TGI (HT29 colon): 27.3 µM | GI50 (ACHN renal): 3.47 µM | TGI (ACHN renal): 12.5 µM | GI50 (K-562 leukemia): 3.2 µM | TGI (K-562 leukemia): 15.1 µM | GI50 (SW-620 colon): 4.99 µM | TGI (SW-620 colon): 18.5 µM | GI50 (A498 renal): 18.8 µM | TGI (A498 renal): 34.8 µM | GI50 (NCI-H23 lung): 2.4 µM | TGI (NCI-H23 lung): 6.17 µM | GI50 (M14 melanoma): 2.56 µM | TGI (M14 melanoma): 6.09 µM | GI50 (OVCAR-5 ovarian): 14.2 µM | TGI (OVCAR-5 ovarian): 29.5 µM | GI50 (NCI/ADR-RES ovarian): 4.31 µM | TGI (NCI/ADR-RES ovarian): 15.7 µM | GI50 (MDA-MB-231 breast): 2.37 µM | TGI (MDA-MB-231 breast): 6.07 µM | GI50 (UACC-257 melanoma): 5.65 µM | TGI (UACC-257 melanoma): 20.5 µM | GI50 (NCI-H226 lung): 3.45 µM | TGI (NCI-H226 lung): 16 µM | GI50 (HS 578T breast): 4.09 µM | TGI (HS 578T breast): 24.7 µM | GI50 (786-0 renal): 2.13 µM | TGI (786-0 renal): 4.76 µM | GI50 (HOP-92 NSCLC): 3.55 µM | TGI (HOP-92 NSCLC): 15.7 µM | GI50 (SK-OV-3 ovarian): 16.5 µM | TGI (SK-OV-3 ovarian): 31.7 µM | GI50 (MDA-MB-468 breast): 5.31 µM | TGI (MDA-MB-468 breast): 17.6 µM | GI50 (A549 NSCLC): 3.89 µM | TGI (A549 NSCLC): 19.8 µM | GI50 (HCT-116 colon): 2.78 µM | TGI (HCT-116 colon): 7.81 µM | GI50 (NCI-H460 lung): 2.39 µM | TGI (NCI-H460 lung): 5.78 µM | GI50 (SK-MEL-5 melanoma): 3.69 µM | TGI (SK-MEL-5 melanoma): 13.6 µM | GI50 (UACC-62 melanoma): 4.63 µM | TGI (UACC-62 melanoma): 16.8 µM | GI50 (COLO 205 colon): 12.8 µM | TGI (COLO 205 colon): 27.5 µM | GI50 (PC-3 prostate): 3.28 µM | TGI (PC-3 prostate): 16.6 µM | GI50 (SN12C renal): 2.91 µM | TGI (SN12C renal): 11.2 µM | GI50 (TK-10 renal): 20.2 µM | TGI (TK-10 renal): 36.8 µM | GI50 (T-47D breast): 18.3 µM | TGI (T-47D breast): 65.8 µM | GI50 (SK-MEL-28 melanoma): 5.04 µM | TGI (SK-MEL-28 melanoma): 17.5 µM | GI50 (HCC-2998 colon): 8.56 µM | TGI (HCC-2998 colon): 20.9 µM | GI50 (SF-268 CNS): 5.66 µM | TGI (SF-268 CNS): 22.3 µM | GI50 (SF-539 CNS): 2.86 µM | TGI (SF-539 CNS): 9.19 µM | GI50 (MCF7 breast): 3.86 µM | TGI (MCF7 breast): 17.7 µM | GI50 (OVCAR-3 ovarian): 11.3 µM | TGI (OVCAR-3 ovarian): 28.2 µM | GI50 (MALME-3M melanoma): 3.83 µM | TGI (MALME-3M melanoma): 15.4 µM | GI50 (RPMI-8226 leukemia): 8.26 µM | TGI (RPMI-8226 leukemia): 86.3 µM | GI50 (CAKI-1 renal): 3.74 µM | TGI (CAKI-1 renal): 14.9 µM | GI50 (HL-60(TB) leukemia): 2.91 µM | TGI (HL-60(TB) leukemia): 15.6 µM | GI50 (SR leukemia): 9.89 µM | TGI (SR leukemia): > 100 µM | GI50 (NCI-H522 lung): 4.73 µM | TGI (NCI-H522 lung): 19.8 µM | GI50 (OVCAR-8 ovarian): 3.9 µM | TGI (OVCAR-8 ovarian): 19.4 µM | GI50 (EKVX NSCLC): 9.52 µM | TGI (EKVX NSCLC): 21.6 µM

Cc1[nH]c(/C=C2\C(=O)Nc3ccc(S(=O)(=O)Cc4c(Cl)cccc4Cl)cc32)c(C)c1C(=O)N1CCC[C@@H]1CN1CCCC1
GI50 (MDA-MB-468 breast): 1.52 µM | TGI (MDA-MB-468 breast): 2.94 µM

Brc1cccc(-c2cc(-c3ccc4c(c3)OCCO4)[nH]n2)c1
GI50 (MDA-MB-468 breast): 5.6 µM | TGI (MDA-MB-468 breast): 33.5 µM

CCn1c(SCC(=O)Nc2cccc(C(=O)/C=C/c3cc(OC)c(OC)c(OC)c3)c2)nc2ccccc2c1=O
GI50 (MDA-MB-468 breast): 4.22 µM | TGI (MDA-MB-468 breast): 40.2 µM

CN=C(N)N/N=C(\c1ccccc1)c1ccc(Br)cc1
GI50 (MDA-MB-468 breast): 0.275 µM | TGI (MDA-MB-468 breast): 1.08 µM

COc1ccc(-c2nn(-c3cccc(Cl)c3)cc2C2CC(c3ccccc3)=NN2C(C)=O)cc1 (stereo unspecified)
GI50 (MDA-MB-468 breast): 16.3 µM | TGI (MDA-MB-468 breast): > 100 µM

Nc1n[nH]c2ccc([C@@H]3Nc4ccc5[nH]ncc5c4[C@H]4[C@H]5CCC(C5)[C@H]43)cc12
GI50 (MDA-MB-468 breast): 0.249 µM | TGI (MDA-MB-468 breast): 1.42 µM

COc1c(C2CC(=O)Nc3c2cnn3Cc2ccco2)cc2c(c1OC)OCO2 (stereo unspecified)
GI50 (MDA-MB-468 breast): 0.318 µM | TGI (MDA-MB-468 breast): > 100 µM

COc1ccc(C(=S)N2CCN(c3cccc(Cl)c3)CC2)cc1
GI50 (MDA-MB-468 breast): 32.3 µM | TGI (MDA-MB-468 breast): > 100 µM

C[C@@H]1CC[C@@H]2[C@@H]1[C@H](OC(=O)/C=C/c1ccccc1)[C@]1(c3ccccc3)C[C@@H](OC(=O)CO)[C@@]2(C)O1
GI50 (MDA-MB-468 breast): 13.6 µM | TGI (MDA-MB-468 breast): 29 µM

CCn1c(-c2nonc2N)nc2c(C#CCN)ncc(OCCCN)c21
GI50 (MDA-MB-468 breast): > 25 µM | TGI (MDA-MB-468 breast): > 25 µM

COc1cc(/C=C\[N+](=O)[O-])ccc1O
GI50 (MDA-MB-468 breast): 1.69 µM | TGI (MDA-MB-468 breast): 3.5 µM

CC(C)(C)c1cc(O)c(O)c(C(C)(C)C)c1
GI50 (MDA-MB-468 breast): 2.14 µM | TGI (MDA-MB-468 breast): 4.77 µM

COc1ccc(C(=O)Nc2ncc(Cc3ccc(Cl)cc3)s2)cc1
GI50 (MDA-MB-468 breast): 0.0378 µM | TGI (MDA-MB-468 breast): 17.5 µM

CN1CCN(Cc2ccc(C(=O)Nc3cncc(C#Cc4cnc(N)c5ccccc45)c3)cc2C(F)(F)F)CC1
GI50 (MDA-MB-468 breast): 1.77 µM | TGI (MDA-MB-468 breast): 3.65 µM
